From patent publication US20050222147A1, “Process for the preparation of morpholine derivatives and intermediates therefore” (priority 2000, published 2005) come the findings set out here.

Counter-ions that a name gives are not always drawn.

The target in the assay is T1, CCR-3 (Homo sapiens, UniProt P51677).
T1 construct: expressed in transfected cells
T1 sequence (P51677 1-355): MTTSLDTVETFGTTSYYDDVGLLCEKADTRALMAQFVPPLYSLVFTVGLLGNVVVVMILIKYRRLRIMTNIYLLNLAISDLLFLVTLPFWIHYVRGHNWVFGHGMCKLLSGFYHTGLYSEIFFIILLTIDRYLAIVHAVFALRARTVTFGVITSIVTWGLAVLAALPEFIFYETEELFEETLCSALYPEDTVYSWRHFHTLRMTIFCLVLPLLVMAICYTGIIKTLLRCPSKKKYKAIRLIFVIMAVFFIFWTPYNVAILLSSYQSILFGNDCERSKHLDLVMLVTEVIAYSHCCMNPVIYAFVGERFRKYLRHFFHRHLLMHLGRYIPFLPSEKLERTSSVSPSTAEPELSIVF
Description: CCR-3 competition binding SPA (scintillation proximity assay). The following applies: read-out: CCR-3 Binding Assay (pIC50) (converted). The protocol: A CCR-3 competition binding SPA (scintillation proximity assay) was used to assess the affinity of novel compounds for CCR-3. Membranes prepared from K562 cells stably expressing CCR-3 (2.51 μg/well) were mixed with 0.25 mg/well wheat-germ agglutinin SPA beads (Amersham) and incubated in binding buffer (HEPES 50 mM, CaCl2 1 mM, MgCl2 5 mM, 0.5% BSA) at 4° C. for 1.5 hr. Following incubation, 20 pM of [^125I) eotaxin (Amersham) and increasing concentrations of compound (1 pM to 30 μM) were added and incubated in a 96 well plate for 2 hr at 22° C. then counted on a Microbeta plate counter. The total assay volume was 100 μl. Competition binding data were analysed by fitting the data with a four parameter logistic equation. Data are presented as the mean pIC50 values (negative logarithm of the concentration of compound which inhibits [^125I] eotaxin binding by 50%) from at least two experiments.

Take `C[C@H]1CO[C@H](CNC(=O)Cc2ccccc2)CN1Cc1ccc(Cl)c(Cl)c1` (relative stereo) [Example 25, N-{[(trans)4-(3,4-Dichlorobenzyl)-5-methylmorpholin-2-yl]methyl}-2-phenylacetamide]: the IC50 was 60.3 nM. As for `CSc1ccc(CC(=O)NCC2CN(Cc3ccc(Cl)c(Cl)c3)CCO2)cc1` (centres unmarked) [Example 5, N-{[4-(3,4-Dichlorobenzyl)morpholin-2-yl]methyl}-2-[4-(methylthio)phenyl]acetamide], the IC50 was 77.6 nM. In the case of `O=C(Cc1ccc(F)c(F)c1)NCC1CN(Cc2ccc(Cl)c(Cl)c2)CCO1` (centres unmarked) [Example 6, N-{[4-(3,4-Dichlorobenzyl)morpholin-2-yl]methyl}-2-(3,4-difluorophenyl)acetamide] it was 138 nM; in that of `CN(C)S(=O)(=O)c1ccc(CC(=O)NCC2CN(Cc3ccc(Cl)c(Cl)c3)CCO2)cc1` (centres unmarked) [Example 7, N-{[4-(3,4-Dichlorobenzyl)morpholin-2-yl]methyl}-2-{4-[(dimethylamino)sulfonyl]phenyl}acetamide salt with formic acid (1:1)], 15.1 nM. In the case of `O=C(Cc1cccc(Cl)c1)NCC1CN(Cc2ccc(Cl)c(Cl)c2)CCO1` (centres unmarked) [Example 8, 2-(3-Chlorophenyl)-N-{[4-(3,4-dichlorobenzyl)morpholin-2-yl]methyl}acetamide] it was 145 nM; in that of `NC(=O)c1ccc(CC(=O)NCC2CN(Cc3ccc(Cl)c(Cl)c3)CCO2)cc1` (centres unmarked) [Example 10, 4-[2-({[4-(3,4Dichlorobenzyl)morpholin-2-yl]methyl}amino)-2-oxoethyl]benzamide], 158 nM. With `O=C(Cc1cc(Cl)ccc1Cl)NCC1CN(Cc2ccc(Cl)c(Cl)c2)CCO1` (centres unmarked) [Example 13, N-{[4-(3,4-Dichlorobenzyl)morpholin-2-yl]methyl}-2-(2,5-dichlorophenyl)acetamide] the figure was 240 nM. Consider `O=C(Cc1ccc(C(F)(F)F)cc1)NCC1CN(Cc2ccc(Cl)c(Cl)c2)CCO1` (centres unmarked) [Example 14], for which the IC50 was 339 nM. Consider `Cc1cc(F)ccc1CC(=O)NCC1CN(Cc2ccc(Cl)c(Cl)c2)CCO1` (centres unmarked) [Example 19, N-{[4-(3,4-Dichlorobenzyl)morpholin-2-yl]methyl}-2-(4-fluoro-2-methylphenyl)acetamide], for which the IC50 is 832 nM. In the case of `COc1ccc(CC(=O)NCC2CN(Cc3ccc(Cl)c(Cl)c3)CCO2)cc1` (centres unmarked) [Example 22, N-{[4-(3,4-Dichlorobenzyl)morpholin-2-yl]methyl}-2-(4-methoxyphenyl)acetamide] it was 110 nM; in that of `COc1ccc2[nH]c(C)c(CC(=O)NCC3CN(Cc4ccc(Cl)c(Cl)c4)CCO3)c2c1` (centres unmarked) [Example 31, N-{[4-(3,4-Dichlorobenzyl)morpholin-2-yl]methyl}-2-(5-methoxy-2-methyl-1H-indol-3-yl)acetamide], 513 nM; in that of `Cc1nn(CC(=O)NCC2CN(Cc3ccc(Cl)c(Cl)c3)CCO2)c(C)c1Br` (centres unmarked) [Example 35], 155 nM. With `O=C(Cc1ccco1)NCC1CN(Cc2ccc(Cl)c(Cl)c2)CCO1` (centres unmarked) [Example 38, N-{[4-(3,4-Dichlorobenzyl)morpholin-2-yl]methyl}-2-(2-furyl)acetamide] the figure was 100 nM; with `O=C(Cn1nnc(-c2ccccc2)n1)NC[C@H]1CN(Cc2ccc(Cl)c(Cl)c2)CCO1` [Example 44], 6.76 nM; with `CS(=O)(=O)Nc1ccc(CC(=O)NCC2CN(Cc3ccc(F)c(F)c3)CCO2)cc1` (centres unmarked) [Example 45], 13.2 nM. In the case of `CS(=O)(=O)Nc1ccc(CC(=O)NC[C@H]2CN(Cc3ccc(F)cc3)CCO2)cc1` [Example 46, N-{[(2S)-4-(4-Fluorobenzyl)morpholin-2-yl]methyl}-2-{4-[(methylsulfonyl)amino]phenyl}acetamide] it was 72.4 nM; in that of `O=C(Cc1cccc(C(=O)NC2CC2)c1)NCC1CN(Cc2ccc(Cl)c(Cl)c2)CCO1` (centres unmarked) [Example 53, N-Cyclopropyl-3-[2-({[(3,4-dichlorobenzyl)morpolin-2-yl]methyl}amino)-2-oxoethyl]benzamide], 4.07 nM.
